Legend:
EP4 receptor = molecular target: T1, EP4 receptor (Homo sapiens, UniProt P35408); assay: EP4 receptor antagonistic activity by measurement of cAMP amount in human Jurkat cells (HTRF); type: cell-based; conditions: inhibition of cAMP, PGE2 100 nM
T1 construct: endogenous in cells; host or cells: Jurkat cells (human leukemia T lymphoma), no transfection described
Description: Evaluation Test of EP4 Receptor Antagonistic Activity by Measurement of cAMP Amount in Human Jurkat Cells
Jurkat cells (derived from human leukemia T lymphoma) were cultured with RPMI1640 (added with 10% fetal bovine serum) using a F75 flask. After proliferation to semiconfluency, indomethacin having a final concentration of 5 μM was added thereto, and the cells were further cultured for 18 hours. The cells were collected in a 15-mL Spitz tube, prepared to be 1×10^6 cells/mL using a Cell Banker (Mitsubishi Kagaku Iatron), and stored at −80° C. until used for assay. The cells were cultured in a CO2 incubator (37° C., 5% CO2).
A cAMP HiRange kit (Cisbio international) was used for cAMP measurement. A test compound, PGE2, and the cells were diluted and prepared with an assay buffer. The test compound was prepared to have a 3-fold concentration relative to the final concentration, PGE2 was prepared to be 300 nM, and the Jurkat cells frozen stored were prepared to be 1×10^6 cells/mL by thawing them at 37° C. To a 384-well U-bottom black microplate (Corning) were added the test compound, the cells, and PGE2 in this order in each in an amount of 5 μL, followed by shaking with a plate shaker and incubating at room temperature for 30 minutes. After incubation, 5 μL of a d2 reagent which had been diluted 0.6-fold with a lysis buffer was added to each well, followed by shaking with a plate shaker. Subsequently, 5 μL of an europium cryptate reagent which had been diluted 0.6-fold with a lysis buffer was added to each well, followed by shaking with a plate shaker and incubating at room temperature for 60 minutes under light shielding. After incubation, the fluorescence of the cryptate at 620 nm and the fluorescence of the d2 at 655 nm were measured using ARVO1420 (PerkinElmer). The cAMPs of 280, 70, 17.5, 4.38, 1.09, 0.27, and 0.068 nM were measured simultaneously for creating a standard curve. All measurements were performed in quadruplicate, and inhibitory rates were calculated by determining the cAMP amount of each test sample to the value obtained by subtracting the cAMP amount of the group without addition of PGE2 from the cAMP amount of the group with addition of PGE2 of 100 nM. IC50 values were calculated by a Logistic regression method.
In this connection, as the “assay buffer” and “lysis buffer” above, those as shown below were used:
Assay buffer; 1×HBSS (Hanks buffered salt solution, Nissui Pharmaceutical Co., Ltd.), 20 mM HEPES (pH 7.4, Nakarai Tesque), 0.5 mM IBMX (3-isobutyl-1-methylxanthine, WAKO), 0.02% CHAPS (Sigma), 0.1% Bovine serum albumin (Sigma), 2 μM Indomethacin (Sigma)
Lysis buffer; 50 mM NaPO4, 0.8 M KF, 1% Triton X-100, 0.2% Bovine serum albumin

rat EP4 receptor [1] = molecular target: T2, rat EP4 receptor (Rattus norvegicus, UniProt P43114); assay: In vivo rat EP4 receptor antagonistic activity (ONO-4819/LPS, plasma TNF-α); conditions: SD rat, oral
Description: Evaluation Test of In Vivo Rat EP4 Receptor Antagonistic Activity
A solution of PEG 400:20% Tween 80:aqueous 1 M NaHCO3 solution=1:4:5 of a test compound was orally administered to a SD rat (male, 6-week old) under non-fasting conditions, and after 1 hour, ONO-4819 was administered subcutaneously to the back of the rat. After 30 minutes, Lipopolysaccharide (LPS, 0.01 mg/kg) was administered to the tail vein without anesthesia, and after 60 minutes, 0.5 mL of heparin blood was collected from the fundus under ether anesthesia. The blood sample was centrifuged (3000 rpm, 10 minutes) to separate the plasma, and then the TNF-α concentration in the rat plasma was measured by an ELISA kit (see Hepatology Research Journal, vol. 21, 252-260, 2001). A value obtained by subtracting the TNF-α concentration of the group treated with ONO-4819 from the TNF-α concentration of the group not treated with ONO-4819 was taken as 100%, and the inhibitory rates to the value were calculated for the test compounds.
In this connection, Ex represents the below-described Example compound number.

rat EP4 receptor [2] = molecular target: T2, rat EP4 receptor; assay: Rat EP4 receptor antagonistic activity by measurement of cAMP amount (rEP4 cAMP HTRF assay, CHO cells); type: cell-based; set-up: expressed in transfected cells; conditions: inhibition of cAMP, PGE2 100 nM, CHO cells expressing rat EP4
Description: Evaluation Test of Rat EP4 Receptor Antagonistic Activity by Measurement of cAMP Amount
CHO cells in which rat EP4 had been forced to be expressed were seeded in 96-well plates at 2×10^4 cells/100 μL and cultured overnight. The culture medium was replaced with 2 μM Indomethacin/0.1% BSA/alpha-MEM, and further, after 60 minutes, replaced with 1 mM IBMX/2 μM Indomethacin/0.1% BSA/alpha-MEM. After 10 minutes, the test compound was added, and further, after 10 minutes, PGE2 was added at a final concentration of 100 nM. The cells were cultured and reacted in a CO2 incubator (37° C., 5% CO2). After 30 minutes, the culture medium was removed and 100 μL/well of 0.2% Triton X-PBS was added for lysis of the cells. The cAMP contained in this cell lysis solution was measured with a cAMP HiRange kit (Cisbio international). The cell lysis solution was disperesed at 10 μL each into a 384-well U-bottom black microplate (Corning), and a d2 reagent and an europium cryptate reagent were added in this order to each well, each in an amount of 5 μL. It was incubated at room temperature for 60 minutes under light shielding. After incubation, the fluorescence of the cryptate at 620 nm and the fluorescence of the d2 at 655 nm were measured using ARVO1420 (PerkinElmer). The cAMPs of 280, 70, 17.5, 4.38, 1.09, 0.27, and 0.068 nM were measured simultaneously for creating a standard curve. The inhibitory rates were calculated by determining the cAMP amount of each test sample to the value obtained by subtracting the cAMP amount of the group without addition of PGE2 from the cAMP amount of the group with addition of PGE2 of 100 nM. IC50 values are calculated by a Logistic regression method.

T2 sequence (P43114 whole entry): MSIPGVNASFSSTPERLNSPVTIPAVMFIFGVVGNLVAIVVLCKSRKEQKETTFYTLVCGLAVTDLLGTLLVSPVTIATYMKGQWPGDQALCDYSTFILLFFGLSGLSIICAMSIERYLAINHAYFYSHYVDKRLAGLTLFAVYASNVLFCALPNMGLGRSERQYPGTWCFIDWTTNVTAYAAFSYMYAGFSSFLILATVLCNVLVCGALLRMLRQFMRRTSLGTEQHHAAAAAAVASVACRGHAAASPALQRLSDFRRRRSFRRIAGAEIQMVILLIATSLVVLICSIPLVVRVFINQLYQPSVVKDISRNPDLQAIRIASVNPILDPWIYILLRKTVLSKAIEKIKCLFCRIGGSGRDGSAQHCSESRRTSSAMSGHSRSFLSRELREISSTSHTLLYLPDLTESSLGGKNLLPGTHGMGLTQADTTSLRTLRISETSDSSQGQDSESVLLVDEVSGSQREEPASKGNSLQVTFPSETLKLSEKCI
T1 sequence (P35408 whole entry): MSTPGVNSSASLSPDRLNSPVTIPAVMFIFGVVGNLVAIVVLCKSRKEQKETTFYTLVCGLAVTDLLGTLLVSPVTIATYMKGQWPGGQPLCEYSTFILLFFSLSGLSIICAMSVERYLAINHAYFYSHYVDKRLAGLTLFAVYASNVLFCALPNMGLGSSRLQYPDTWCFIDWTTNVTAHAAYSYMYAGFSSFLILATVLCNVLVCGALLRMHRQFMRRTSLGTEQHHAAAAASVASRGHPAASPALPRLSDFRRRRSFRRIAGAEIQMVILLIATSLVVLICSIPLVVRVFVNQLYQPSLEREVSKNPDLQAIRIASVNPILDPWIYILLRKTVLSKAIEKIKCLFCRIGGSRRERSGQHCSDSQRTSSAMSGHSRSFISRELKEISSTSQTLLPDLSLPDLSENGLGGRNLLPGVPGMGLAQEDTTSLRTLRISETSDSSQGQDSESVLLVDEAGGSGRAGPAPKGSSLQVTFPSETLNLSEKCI

IC50 (EP4 receptor)	Inhibitory rate (%) (rat EP4 receptor [1]; dose 0.03 mg/kg)	IC50 (rat EP4 receptor [2])	Inhibitory rate (%) (rat EP4 receptor [1]; dose 0.01 mg/kg)	SMILES
0.15 nM	105%	1.1 nM	–	O=C(NC[C@H]1CC[C@H](C(=O)O)CC1)c1cc(C(F)(F)F)cc2ccn(Cc3ccc4ccccc4n3)c12 [Example 124]
0.037 nM	113%	0.76 nM	–	O=C(O)c1ccc(CNC(=O)c2cc(Cl)cc3ccn(Cc4ccc5ccccc5n4)c23)cc1 [Example 57]
0.094 nM	–	0.9 nM	45%	O=C(NC[C@H]1CC[C@H](C(=O)O)CC1)c1cc(Cl)cc2ccn(Cc3ccc4ccccc4n3)c12 [Example 53]

— patent US8598355B2, “Amide compound” (Astellas Pharma Inc., priority 2008, dated 2013)
